Laboratory results as given in patent US20250255882A1, “TREATMENT OF CARDIAC CONDITION RELATED COGNITIVE DYSFUNCTION” (The Trustees of Columbia University in the City of New York, priority 2024, published 2025).

Legend:
[1] = test system: mouse model of HF (myocardial infarction, MI); assay: open field test and elevated plus maze (EPM) test; format: in vivo; conditions: MI mice, treated
Source text: FIGS. 2A-2G illustrate a mouse model of heart failure (myocardial infarction) that is associated with cognitive dysfunction. […] One-way analysis of variance (ANOVA) was used to compare the difference between the six groups in FIGS. 2B, 2C, 2E and 2F. Tukey's test was used for multiple comparisons; two-way ANOVA was used in FIG. 2D. […] All statistical tests were two sided with the data derived from biologically independent samples.
Because of the complexity of the clinical manifestation of HF patients, the mouse model of HF (myocardial infarction, MI) was used with reduced ejection fraction to evaluate the mechanisms of CD. The open field test and elevated plus maze (EPM) test were used to evaluate the behavioral phenotypes, and spontaneous exploratory activity in the mice. In the open field test, mice were placed at the center of a chamber and allowed to explore for 6 min. […] In the EPM test, MI mice spent […] time in the open arms of the EPM (FIG. 2B) compared to SHAM (0.22±0.04 versus 0.14±0.02; P<0.05). […] As a control, the effects of a Rycal®, ARM036, was studied.

hippocampal RyR2 = target: T1, hippocampal RyR2 (Mus musculus, UniProt E9Q401); assay: single-channel recordings of RyR2 incorporated in planar lipid bilayers; format: in vivo; conditions: hippocampal RyR2 from treated MI mice; for RyR2 mean closed time / RyR2 mean open time: versus untreated MI
T1 construct: Hippocampal RyR2 was immunoprecipitated and immunoblotted to detect PTMs; from tissue; host or cells: mouse hippocampus (SHAM / MI mice, treated in vivo)
Procedure: FIG. 3E are graphs of RyR2 Po, To and Tc in the same groups as FIG. 3D. FIG. 3F is a graph of Ca^2+ leak measured in microsomes from mouse hippocampi of the same groups as FIG. 3D. […] Individual values are shown with the mean±s.e.m. […] Data are derived from biologically independent samples. All statistical tests were two sided.
PTMs and functional abnormalities of neuronal RyR2 in HF hippocampal samples from MI mice were then evaluated and compared them to SHAM. Hippocampal RyR2 was immunoprecipitated and immunoblotted to detect PTMs.

MI mice [2] = assay: long-term potentiation (fEPSPs) in hippocampal slices; format: in vivo, mouse; conditions: slices from treated MI mice; MI decreased LTP versus SHAM
Procedure: (§1) FIG. 4A is a schematic representation of a hippocampal brain slice for LTP experiments and the positioning of the stimulating and recording electrodes.
Field excitatory postsynaptic potentials (fEPSPs) were evaluated at the Schaffer collateral using a bipolar electrode placed at the CA3 and recording at the CA1 (FIG. 4A). […] Importantly, MI and treatment with the various compounds after MI had no effect on basal synaptic transmission determined by the input-output curves (I-O; P=0.5; FIG. 4D).

MI mice [3] = assay: hippocampal FDG metabolism by microPET; format: in vivo, mouse; conditions: treated MI mice; percentage of the FDG uptake in the SHAM mice (SHAM 100±3, MI 70±3)
Source text: as §1
Thereafter, [^18F]fluorodeoxyglucose (FDG) with positron emission tomography (PET) was used to measure energy consumption in neurons, which reflects neuronal communication signals and the integrative local neuronal activity. Deteriorating brain glucose metabolism measured by FDG-PET has been used as a clinical marker for Alzheimer's disease diagnosis. Thus, hippocampal FDG metabolism was evaluated in the experimental groups (FIGS. 4E and 4F).

SNARE signaling pathway = assay: immunoblots of SNAP25, VAMP8, SYT2 and CPLX3 in hippocampi; format: in vivo, mouse; conditions: hippocampi of treated MI mice
Source text: FIGS. 7A-7E illustrate altered synaptic protein expression in heart failure. […] The color map represents fold change of proteins (log 2 scale). […] FIGS. 7B and 7C are immunoblots showing total expression of SNAP25, VAMP8, SYT2 and CPLX3, normalized to GAPDH in the hippocampi of controls (n=4) and individuals with HF (n=9). Individual values are shown with the mean±s.e.m. (t-test *P<0.05, control versus individuals with HF). […] Individual values are shown with the mean #s.e.m. […] Data are derived from biologically independent samples. All statistical tests were two sided.
Based on the proteome data in the setting of defective Ca^2+ regulation, four proteins were selected for further study. These four proteins were from the most enriched synaptic transmission pathways that are regulated by Ca^2+, located near the synaptic membranes, involved in learning and memory process, and involved in neurotransmission as potential downstream signals of leaky RyR2. These selections included synaptosomal-associated protein 25 (SNAP25), vesicle-associated membrane protein 8 (VAMP8), synaptogamin-2 (SYT2) and complexin3 (CPLX3). We analyzed their protein expression levels by immunoblot in individuals with HF, and in SHAM and MI mice with or without each of the aforementioned treatments. […]

TGF-β pathway = assay: immunoblots of TGF-β, phosphorylated SMAD3 and NOX2 binding to RyR2 in hippocampi; format: in vivo, mouse; conditions: hippocampi of treated MI mice
Source text: FIG. 12A includes immunoblots showing expressing levels of TGF-β, phosphorylated SMAD3, total SMAD3, and NOX2 binding to RyR2 in the hippocampi of controls (n=4) and HF patients (n=9). FIG. 12B includes bar graphs depicting the ratio of TGF-β expression normalized to GAPDH, phosphorylated SMAD3 to total SMAD3 and NOX2 binding to RyR2 (IP RyR2). The same quantity of proteins was loaded on two separate gels and blotted separately for SMAD3 and pSMAD3. Individual values are shown with mean±SEM (t-test * p<0.05, Controls vs. HF patients). […] FIG. 12D includes bar graphs depicting the ratio of TGF-β expression normalized to GAPDH, phosphorylated SMAD3 to total SMAD3 and NOX2 binding to RyR2 (IP RyR2). The same quantity of proteins was loaded on two separate gels and blotted separately for SMAD3 and pSMAD3. Individual values are shown with mean±SEM. […] All statistical tests were two-sided. Data are derived from biologically independent samples.
TGF-β has been implicated in CNS disorders including Alzheimer's disease.

[4] = test system: Ca2+-dependent enzymes, Tau and amyloid beta pathway; assay: Alzheimer's disease-like signaling in hippocampal samples; format: in vivo, mouse; conditions: hippocampi of treated MI mice
Source text: Abnormal Ca^2+ regulation can contribute to the activation of Ca^2+-dependent enzymes such as AMP-activated protein kinase (AMPK), cyclin-dependent kinase 5 (CDK5) and enhanced calpain activity. Activation of these enzymes in response to elevated cytosolic Ca^2+ levels are upstream signals of both pTau and amyloid deposits in Alzheimer's disease brains and could be a major factor in the CD observed in HF. […] We also observed an increase in p25 expression, the neurotoxic activator of CDK5, which plays an important role in amyloid precursor protein processing in AD.

T1 sequence (E9Q401 whole entry): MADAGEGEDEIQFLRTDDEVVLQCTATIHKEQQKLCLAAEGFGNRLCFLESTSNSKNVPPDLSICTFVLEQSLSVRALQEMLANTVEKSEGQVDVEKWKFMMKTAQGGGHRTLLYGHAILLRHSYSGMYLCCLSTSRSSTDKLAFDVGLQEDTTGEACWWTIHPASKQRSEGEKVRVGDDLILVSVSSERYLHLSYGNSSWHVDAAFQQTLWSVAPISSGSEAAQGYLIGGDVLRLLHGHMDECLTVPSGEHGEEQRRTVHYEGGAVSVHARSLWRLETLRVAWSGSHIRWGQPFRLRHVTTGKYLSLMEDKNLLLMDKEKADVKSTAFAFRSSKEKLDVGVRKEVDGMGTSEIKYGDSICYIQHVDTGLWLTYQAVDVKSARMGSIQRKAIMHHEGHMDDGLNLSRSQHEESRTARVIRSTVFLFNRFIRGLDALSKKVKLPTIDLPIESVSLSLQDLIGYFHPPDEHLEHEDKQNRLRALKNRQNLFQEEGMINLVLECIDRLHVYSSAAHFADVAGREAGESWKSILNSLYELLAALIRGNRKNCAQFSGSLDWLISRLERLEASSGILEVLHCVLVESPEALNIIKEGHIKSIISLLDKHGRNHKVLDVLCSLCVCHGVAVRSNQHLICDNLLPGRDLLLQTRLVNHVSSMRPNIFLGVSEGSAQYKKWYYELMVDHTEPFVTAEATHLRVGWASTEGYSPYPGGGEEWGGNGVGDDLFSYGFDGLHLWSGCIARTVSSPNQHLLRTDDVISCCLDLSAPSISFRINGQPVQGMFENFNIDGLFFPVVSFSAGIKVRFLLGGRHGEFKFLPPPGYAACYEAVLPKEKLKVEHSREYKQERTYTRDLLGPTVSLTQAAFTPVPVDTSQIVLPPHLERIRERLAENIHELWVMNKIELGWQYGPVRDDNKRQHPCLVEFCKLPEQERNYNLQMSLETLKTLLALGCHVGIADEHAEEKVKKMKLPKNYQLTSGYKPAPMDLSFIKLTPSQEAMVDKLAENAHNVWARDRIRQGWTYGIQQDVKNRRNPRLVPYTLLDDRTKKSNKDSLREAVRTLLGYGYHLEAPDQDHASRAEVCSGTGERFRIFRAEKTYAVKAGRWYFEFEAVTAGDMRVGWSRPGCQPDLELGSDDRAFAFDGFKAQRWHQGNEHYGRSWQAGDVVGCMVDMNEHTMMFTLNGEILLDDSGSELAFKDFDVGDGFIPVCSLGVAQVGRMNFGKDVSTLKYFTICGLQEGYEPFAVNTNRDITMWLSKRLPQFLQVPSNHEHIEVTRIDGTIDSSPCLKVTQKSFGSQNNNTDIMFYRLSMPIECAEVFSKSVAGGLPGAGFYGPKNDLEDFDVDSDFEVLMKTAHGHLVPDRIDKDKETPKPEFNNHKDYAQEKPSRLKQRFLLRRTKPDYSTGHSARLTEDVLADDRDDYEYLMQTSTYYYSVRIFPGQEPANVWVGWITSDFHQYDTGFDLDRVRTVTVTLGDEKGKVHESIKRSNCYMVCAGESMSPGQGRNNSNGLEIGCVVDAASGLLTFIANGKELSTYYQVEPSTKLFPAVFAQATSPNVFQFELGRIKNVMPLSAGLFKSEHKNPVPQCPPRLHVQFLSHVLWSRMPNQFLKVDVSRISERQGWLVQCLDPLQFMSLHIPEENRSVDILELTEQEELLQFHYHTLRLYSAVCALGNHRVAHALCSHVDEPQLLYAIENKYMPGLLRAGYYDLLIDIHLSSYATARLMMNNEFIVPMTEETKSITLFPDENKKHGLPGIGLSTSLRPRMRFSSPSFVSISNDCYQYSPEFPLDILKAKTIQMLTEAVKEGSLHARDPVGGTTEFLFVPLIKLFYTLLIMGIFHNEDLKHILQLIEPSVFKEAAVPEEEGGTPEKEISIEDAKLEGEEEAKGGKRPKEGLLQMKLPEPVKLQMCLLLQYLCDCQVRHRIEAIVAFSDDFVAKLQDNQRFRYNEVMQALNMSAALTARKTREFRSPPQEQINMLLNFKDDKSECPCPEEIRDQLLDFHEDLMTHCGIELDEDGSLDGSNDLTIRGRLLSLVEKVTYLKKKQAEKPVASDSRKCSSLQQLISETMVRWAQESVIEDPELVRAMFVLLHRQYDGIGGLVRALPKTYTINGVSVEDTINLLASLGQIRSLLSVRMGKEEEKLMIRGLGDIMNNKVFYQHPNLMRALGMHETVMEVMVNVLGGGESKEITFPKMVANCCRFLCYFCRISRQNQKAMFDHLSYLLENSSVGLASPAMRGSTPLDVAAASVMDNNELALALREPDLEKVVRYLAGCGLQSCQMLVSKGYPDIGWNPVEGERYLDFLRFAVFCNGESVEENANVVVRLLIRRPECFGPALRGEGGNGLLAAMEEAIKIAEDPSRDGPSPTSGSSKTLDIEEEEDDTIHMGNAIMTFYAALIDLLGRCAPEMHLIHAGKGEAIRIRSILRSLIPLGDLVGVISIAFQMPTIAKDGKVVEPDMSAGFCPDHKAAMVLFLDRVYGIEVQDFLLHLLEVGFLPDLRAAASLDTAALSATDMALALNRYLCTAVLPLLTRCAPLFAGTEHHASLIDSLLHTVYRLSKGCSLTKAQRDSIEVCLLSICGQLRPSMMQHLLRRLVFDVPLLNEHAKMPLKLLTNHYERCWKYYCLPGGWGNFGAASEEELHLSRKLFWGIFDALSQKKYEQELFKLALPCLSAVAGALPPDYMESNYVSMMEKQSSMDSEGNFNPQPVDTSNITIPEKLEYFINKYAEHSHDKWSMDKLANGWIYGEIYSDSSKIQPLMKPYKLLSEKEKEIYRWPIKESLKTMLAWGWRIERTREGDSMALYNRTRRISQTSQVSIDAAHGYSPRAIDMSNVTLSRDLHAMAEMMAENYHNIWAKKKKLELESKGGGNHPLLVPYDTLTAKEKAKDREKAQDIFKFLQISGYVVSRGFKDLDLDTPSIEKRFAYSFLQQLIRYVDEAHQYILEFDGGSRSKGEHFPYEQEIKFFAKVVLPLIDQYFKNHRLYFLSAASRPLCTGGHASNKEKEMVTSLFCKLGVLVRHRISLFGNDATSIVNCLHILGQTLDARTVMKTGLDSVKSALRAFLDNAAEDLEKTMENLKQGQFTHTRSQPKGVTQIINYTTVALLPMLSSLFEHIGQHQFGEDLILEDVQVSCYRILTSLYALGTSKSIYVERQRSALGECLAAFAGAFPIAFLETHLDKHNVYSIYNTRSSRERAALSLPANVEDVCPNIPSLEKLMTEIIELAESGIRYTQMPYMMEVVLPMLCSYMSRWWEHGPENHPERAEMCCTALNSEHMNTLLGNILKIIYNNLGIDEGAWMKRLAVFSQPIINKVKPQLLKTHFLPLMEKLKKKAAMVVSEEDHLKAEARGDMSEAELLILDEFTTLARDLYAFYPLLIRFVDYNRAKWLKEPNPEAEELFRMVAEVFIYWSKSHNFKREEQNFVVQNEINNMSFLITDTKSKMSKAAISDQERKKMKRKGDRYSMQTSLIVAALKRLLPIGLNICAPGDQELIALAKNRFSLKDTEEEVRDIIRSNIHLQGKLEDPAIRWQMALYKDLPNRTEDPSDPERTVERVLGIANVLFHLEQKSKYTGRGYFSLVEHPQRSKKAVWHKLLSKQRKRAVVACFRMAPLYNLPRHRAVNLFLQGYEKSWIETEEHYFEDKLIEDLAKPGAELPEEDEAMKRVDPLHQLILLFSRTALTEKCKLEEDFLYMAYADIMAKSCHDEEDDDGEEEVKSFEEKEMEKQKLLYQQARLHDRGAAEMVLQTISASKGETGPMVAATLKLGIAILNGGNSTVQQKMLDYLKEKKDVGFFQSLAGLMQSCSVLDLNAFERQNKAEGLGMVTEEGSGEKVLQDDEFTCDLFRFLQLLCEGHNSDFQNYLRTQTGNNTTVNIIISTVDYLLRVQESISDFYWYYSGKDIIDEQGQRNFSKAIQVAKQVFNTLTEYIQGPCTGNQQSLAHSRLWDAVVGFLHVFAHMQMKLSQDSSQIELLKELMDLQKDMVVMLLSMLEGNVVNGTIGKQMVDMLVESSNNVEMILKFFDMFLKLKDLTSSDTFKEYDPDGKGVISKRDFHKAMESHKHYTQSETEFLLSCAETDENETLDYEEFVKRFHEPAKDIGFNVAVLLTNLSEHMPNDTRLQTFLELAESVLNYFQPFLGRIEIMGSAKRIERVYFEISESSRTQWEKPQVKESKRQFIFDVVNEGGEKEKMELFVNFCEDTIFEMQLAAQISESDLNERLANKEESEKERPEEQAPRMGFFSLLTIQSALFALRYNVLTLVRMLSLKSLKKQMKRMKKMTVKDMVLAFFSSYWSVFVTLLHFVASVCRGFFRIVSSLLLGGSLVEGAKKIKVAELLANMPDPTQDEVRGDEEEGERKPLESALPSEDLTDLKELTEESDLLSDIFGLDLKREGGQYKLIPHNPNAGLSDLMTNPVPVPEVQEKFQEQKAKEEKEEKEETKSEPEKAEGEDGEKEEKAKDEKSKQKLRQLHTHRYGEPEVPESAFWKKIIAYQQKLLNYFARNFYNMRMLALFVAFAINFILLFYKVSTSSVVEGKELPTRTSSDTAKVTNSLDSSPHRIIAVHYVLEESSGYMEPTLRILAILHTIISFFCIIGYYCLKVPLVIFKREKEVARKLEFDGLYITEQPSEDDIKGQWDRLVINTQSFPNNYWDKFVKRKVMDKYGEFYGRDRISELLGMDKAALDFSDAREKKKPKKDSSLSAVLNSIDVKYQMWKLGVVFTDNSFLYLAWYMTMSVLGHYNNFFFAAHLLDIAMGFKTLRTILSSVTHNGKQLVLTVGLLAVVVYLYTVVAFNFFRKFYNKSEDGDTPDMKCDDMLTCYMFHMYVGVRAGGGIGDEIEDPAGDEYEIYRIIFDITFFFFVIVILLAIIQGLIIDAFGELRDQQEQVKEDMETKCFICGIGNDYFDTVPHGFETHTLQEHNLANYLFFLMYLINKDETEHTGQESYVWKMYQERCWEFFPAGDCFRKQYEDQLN
T1 sequence (Q9Z2I2 whole entry partner): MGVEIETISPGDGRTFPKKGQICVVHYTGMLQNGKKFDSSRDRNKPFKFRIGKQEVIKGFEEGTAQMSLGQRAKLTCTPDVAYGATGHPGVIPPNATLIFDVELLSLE

| Compound | abnormal behaviors in open field test (time center versus periphery) and EPM test (time open-arm versus closed-arm) [1] | RyR2 mean closed time (hippocampal RyR2) | RyR2 mean open time (hippocampal RyR2) | LTP (hippocampal synaptic plasticity) (MI mice [2]) | hippocampal FDG metabolism (MI mice [3]) | expression of SNAP25, VAMP8, SYT2 and CPLX3 (SNARE signaling pathway) | NOX2 binding to hippocampal RyR2 (TGF-β pathway) | TGF-β levels (TGF-β pathway) | phosphorylation of SMAD3 (TGF-β pathway) | changes in AMPK, GSK3B, CaMKII, Tau phosphorylation, p25, BACE1 and βCTF [4] | RyR2 open probability (Po) (hippocampal RyR2; 150 nM Ca2+ cis, MI 0.17%±0.04%) |
| --- | --- | --- | --- | --- | --- | --- | --- | --- | --- | --- | --- |
| Fc1ccc(Cl)cc1-c1nc(Nc2ccncc2)c2nccnc2n1 [SD-208] | prevented | increased | decreased | prevented MI-induced LTP deficits | 138±22 | restored the expression of these proteins to the control levels | significantly reduced | significantly reduced | significantly reduced | prevented/attenuated |  |
| CC(C)NCC(O)COc1cccc2ccccc12 (stereo not drawn) [propranolol] | prevented | increased | decreased | prevented MI-induced LTP deficits | 145±26 | restored the expression of these proteins to the control levels | significantly reduced | significantly reduced | significantly reduced | prevented/attenuated | 0.018%±0.020% |
